Experimental data taken from patent US11555031B2, “Compounds and methods for regulating insulin secretion” (The Broad Institute, Inc., priority 2017, dated 2023).
“Also recorded” adds a separate entry of the source.

Experiments:
Microsome t1/2, mouse = assay type: in vitro ADME; details: Mouse (CD-1) microsomes
Procedure: (§1) The pharmacokinetic activity profile of Compound 8 was assessed by various standard in vitro measurements. Measurements were performed on human, mouse (CD-1) and rat (SD) microsomes to determine the t1/2, the plasma protein binding (“PPB”) and the plasma stability (“PS”).

Plasma stability, mouse = assay type: in vitro ADME
Procedure: (§2) Measurements were performed on human, mouse (CD-1) and rat (SD) microsomes to determine the t1/2, the plasma protein binding (“PPB”) and the plasma stability (“PS”).

C57B6/J mice = test: In vivo efficacy, glucose tolerance test; set-up: species or system mouse; details: 2 mg/kg tail vein injection, compared to control (vehicle)
Procedure: Three-month-old male C57B6/J mice of body weight ranging from 20 to 25 g were housed in plastic polycarbonate cages. The animals were maintained at 25° C. with a 12-hour dark, 12-hour light schedule with food and water available ad libitum.
After two weeks of adaptation, the animals were randomly divided into two treatment groups (vehicle and Compound 8 in vehicle) with 5 mice per group. Mice were fasted for 16 hours (overnight) and basal blood glucose level was measured by tail vein nick using the AlphaTRAK 2 glucometer. Animals were given Compound 8 (2 mg/kg body weight) in vehicle or vehicle alone (7.5% NMP, 7.5% Solutol HS-15, 85% normal saline) by tail vein injection. Glucose tolerance tests (GTT) were performed 10 minutes after injection. Animals were given glucose at a dose of 1 g/kg body weight by intraperitoneal injection. Blood glucose was measured using the glucometer immediately before glucose injection, and at 15, 30, 60, and 120 minutes after injection (FIGS. 19A and 19C). At the 0, 15, and 30 minute time points, blood samples for insulin measurements were collected into EDTA-coated tubes and centrifuged at 9000 rpm to separate plasma, which was then stored at −80° C. until analysis. Insulin levels in plasma were analyzed using the ultra-sensitive mouse insulin ELISA kit (Crystal Chem) (FIGS. 19B and 19D). […]

Microsome t1/2, human = assay type: in vitro ADME; details: Human microsomes
Procedure: as §1

INS-1E cells = test: Luciferase Insulin Secretion Assay (proinsulin-Gaussia luciferase reporter); assay type: cell-based, rat; details: INS-1E cells; 2.8 mM vs 16.7 mM glucose
cAMP = cAMP HTRF assay (Cisbio); assay type: cell-based; details: HTRF competition assay; increase in cAMP seen as decrease in signal
Excerpt: FIG. 9 depicts the quantification of cAMP activity in cells treated with the indicated compound in a HTRF assay from Cisbio.
Further investigation into Compound 8 included measuring levels of the secondary messengers cAMP (FIG. 9) and IP-1 (not shown) in treated cells, as compounds that increase these secondary messengers are known to augment insulin secretion, though often in ways that are not beta-cell specific.
CellTiter-Glo (Promega) and the cAMP Dynamic-2 HTRF assay (Cisbio) were used according to the manufacturers' instructions. Luciferase secretion and CellTiter-Glo experiments were performed using a 1 hr incubation with compound, whereas the cAMP assay was performed using a 30 min incubation. Secretion experiments were run in KRB buffer; all other experiments were run in standard INS-1E medium.

Plasma stability, rat = assay type: in vitro ADME
Procedure: as §2

**Q.** Which half-life (Microsome t1/2, mouse) does the source give for `Cc1cccc(NC(=O)c2ccc(OCc3c(C)noc3C)cc2)c1C` [Compound 8] here?
**A.** 4.6 h

**Q.** And the PS (Plasma stability, mouse)?
**A.** 96.0 % remaining

**Q.** And the “glucose concentration area under the curve (AUC)” value (C57B6/J mice; GTT 1 g/kg glucose i.p.)?
**A.** decreased

**Q.** And the insulinogenic index (C57B6/J mice; GTT)?
**A.** increase

**Q.** What about the half-life (Microsome t1/2, human) of the same compound?
**A.** 19.3 h

**Q.** And the “glucose-dependent (glucose-stimulated) insulin secretion, luciferase reporter” value (INS-1E cells)?
**A.** significant increase in glucose-dependent insulin secretion; also recorded: dose-dependent effect; also recorded: more effective than even the positive control, forskolin

**Q.** And the cAMP level (cAMP)?
**A.** did not increase levels

**Q.** And the PS (Plasma stability, rat)?
**A.** 97.5 % remaining
